The values below come from PubChem BioAssay (NCI).

Some test systems named below: BT-549 breast; EKVX NSCLC; K-562 leukemia; LOX IMVI melanoma; MDA-MB-435; MOLT-4 leukemia; SF-268 CNS; SF-539 CNS; T-47D breast; NCI-H460 lung.
Assay in all cases: growth of human tumour cells (NCI), 48 h

Where “and” joins values, the source holds several entries; their conditions need not be identical. Identical values can stand only once.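 Step 1: Grow cells in 96-well plates. Step 2: Expose to compound for 48 hours at 5 concentrations. Step 3: Interpolate endpoints linearly; if unreached, use highest concentration. At the GI50, growth is halved. TGI marks complete inhibition of growth.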

With `CC(=O)O[C@H]1CC[C@@H](OC(C)=O)[C@H]2[C@H](O)[C@H](O)[C@@H]1n1c(=O)n(-c3ccccc3)c(=O)n12`, the TGI with BT-549 breast, with EKVX NSCLC, in the assay with K-562 leukemia, in the assay on LOX IMVI melanoma, with MDA-MB-435 and with MOLT-4 leukemia was more than 100 µM in each case. Also, the TGI with SF-268 CNS, in the assay with SF-539 CNS and in the assay on T-47D breast was more than 100 µM in each case.
On to `NC(=O)CSc1nc2ccccc2c(=O)n1N`, for which the TGI in the assay with BT-549 breast, in the assay with EKVX NSCLC, in the assay on K-562 leukemia, with LOX IMVI melanoma, in the assay on MDA-MB-435 and with MOLT-4 leukemia was more than 100 µM in each case. Besides, the TGI with NCI-H460 lung, in the assay with SF-268 CNS, in the assay with SF-539 CNS and in the assay with T-47D breast was more than 100 µM in each case.
Take `Cc1nnc(SCc2nc(C#N)c(C#N)nc2CSc2nnc(C)s2)s1`: the TGI is 36.3 µM with BT-549 breast; 36.5 µM in the assay on EKVX NSCLC; more than 52.3 µM with K-562 leukemia; 23.3 µM in the assay with LOX IMVI melanoma; 26.4 µM in the assay with MDA-MB-435; 12.9 µM in the assay on MOLT-4 leukemia. The TGI is more than 59.2 µM with NCI-H460 lung, 35.4 µM with SF-268 CNS, 40.9 µM in the assay with SF-539 CNS and 17.3 µM in the assay on T-47D breast.
Consider `Cc1ccc(C(=O)Nc2ccc(CP(=O)(O)O)cc2CP(=O)(O)O)cc1N`, for which the TGI with BT-549 breast, with EKVX NSCLC, in the assay with K-562 leukemia, with LOX IMVI melanoma, in the assay with MDA-MB-435 and in the assay with MOLT-4 leukemia was more than 100 µM in each case. Also, the TGI in the assay on SF-268 CNS, with SF-539 CNS and with T-47D breast was more than 100 µM each time.
Consider `Cc1n[nH]c(=O)n1-n1cccc1`, for which the TGI in the assay on BT-549 breast, in the assay on EKVX NSCLC, in the assay with K-562 leukemia, in the assay on LOX IMVI melanoma, in the assay on MDA-MB-435 and with MOLT-4 leukemia was more than 100 µM each time. For the same compound, the TGI with NCI-H460 lung, in the assay on SF-268 CNS, in the assay on SF-539 CNS and in the assay on T-47D breast was more than 100 µM each time.
In the case of `CC1(C)C(=O)/C(=C/c2ccccc2)C(C)(C)C1(C)C`, the TGI is more than 100 µM in the assay with BT-549 breast; more than 100 µM with EKVX NSCLC; more than 100 µM with K-562 leukemia; more than 100 µM in the assay with LOX IMVI melanoma; more than 86.6 µM in the assay with MDA-MB-435; more than 100 µM in the assay on MOLT-4 leukemia. For the same compound, the TGI with NCI-H460 lung, in the assay with SF-539 CNS and in the assay on T-47D breast was more than 100 µM each time.
Consider `CC(C)(C)C(=O)c1c(O)c2ccccc2c2ccccc2c1=O`, for which the TGI was 91.6 µM in the assay with BT-549 breast; more than 100 µM with EKVX NSCLC; more than 100 µM in the assay with LOX IMVI melanoma; more than 100 µM in the assay with MDA-MB-435; more than 100 µM with MOLT-4 leukemia; more than 100 µM in the assay on NCI-H460 lung. Moreover, the TGI in the assay on SF-268 CNS, with SF-539 CNS and with T-47D breast was more than 100 µM each time.
Take `O=C(Nc1cccc2ccccc12)c1cc2ccccc2oc1=O`: the TGI in the assay on BT-549 breast, in the assay with K-562 leukemia, in the assay on LOX IMVI melanoma, in the assay with MDA-MB-435, in the assay with MOLT-4 leukemia and with NCI-H460 lung was more than 100 µM in each case. Further, the TGI was more than 100 µM in the assay with SF-268 CNS, 81.8 µM in the assay on SF-539 CNS and more than 100 µM in the assay on T-47D breast.
On to `COC(=O)CCC(C)[C@H]1CCC2C3CC[C@@H]4CC5(CC[C@]4(C)C3C[C@H](OC(C)=O)[C@@]21C)OOC1(CCCCC1)OO5` (stereo not given in full), for which the TGI in the assay with BT-549 breast is more than 100 µM; in the assay on EKVX NSCLC, 7.37 µM; in the assay with K-562 leukemia it was more than 100 µM; in the assay with MDA-MB-435 it was 37 µM; in the assay on MOLT-4 leukemia it was more than 100 µM; in the assay on NCI-H460 lung, more than 100 µM. Further, the TGI is more than 100 µM with SF-268 CNS, more than 100 µM with SF-539 CNS and 50 µM in the assay with T-47D breast.
For the compound `O=c1[nH]nc(Nc2ccc(Cl)cc2)c2nnn(C3CCCCC3)c12`, the TGI is more than 100 µM in the assay with BT-549 breast; more than 100 µM with EKVX NSCLC; more than 100 µM with K-562 leukemia; 43.3 µM with LOX IMVI melanoma; more than 100 µM in the assay on MDA-MB-435; more than 100 µM in the assay on NCI-H460 lung. Besides, the TGI with SF-268 CNS, in the assay on SF-539 CNS and in the assay with T-47D breast was more than 100 µM throughout.
Take `Nc1c(C(=O)O)c2ccc([N+](=O)[O-])cc2c(=O)n1-c1nc2ccccc2s1`: the TGI in the assay on BT-549 breast, in the assay on EKVX NSCLC, in the assay with K-562 leukemia, in the assay on LOX IMVI melanoma, in the assay with MDA-MB-435 and with MOLT-4 leukemia was more than 100 µM throughout. The TGI with NCI-H460 lung, with SF-268 CNS and in the assay with T-47D breast was more than 100 µM throughout.
Regarding `CC(C)(NO)/C(=N\O)c1ccccc1`, the TGI in the assay on BT-549 breast, in the assay on EKVX NSCLC, in the assay on K-562 leukemia, in the assay with MDA-MB-435, in the assay on MOLT-4 leukemia and in the assay on NCI-H460 lung was more than 10 µM each time. Besides, the TGI in the assay on SF-268 CNS and in the assay on T-47D breast was more than 10 µM each time.
Regarding `CCCCCCCCCCCCCCCCNc1nc(=O)n(C2OC(C)C(O)C2O)cc1F` (stereo not given), the TGI came out at 35.1 µM in the assay with BT-549 breast; 35.3 µM in the assay with EKVX NSCLC; 55.5 µM with LOX IMVI melanoma; 30.5 µM in the assay on MDA-MB-435; 62.2 µM with MOLT-4 leukemia; 33.9 µM in the assay on NCI-H460 lung. Also, the results for the TGI in the assay on SF-268 CNS, in the assay on SF-539 CNS and in the assay on T-47D breast were 44.5 µM, 33.5 µM and 43.8 µM, respectively.
`COc1ccccc1N=Nc1c(O)ccc2ccccc12`: the TGI was more than 100 µM in the assay on BT-549 breast; 36.2 µM and 96.1 µM in the assay on EKVX NSCLC; more than 100 µM in the assay with K-562 leukemia; more than 100 µM with LOX IMVI melanoma; more than 100 µM in the assay on MDA-MB-435; more than 100 µM in the assay on MOLT-4 leukemia. In addition, the TGI in the assay with NCI-H460 lung is 38.1 µM; with SF-268 CNS, more than 100 µM; in the assay with T-47D breast, more than 100 µM. The GI50 in the assay with EKVX NSCLC was 4.42 µM and 19.5 µM; in the assay on LOX IMVI melanoma, 25.1 µM and 55.7 µM.
